Laboratory results: patent US10098881B2, “Compounds” (AUTIFONY THERAPEUTICS LIMITED, priority 2011, dated 2018)
Entries after “also recorded” stand apart in the source; their conditions may differ. Where two headings read alike, the source gives them in different places.

Key:
[1] = Analysis of blood levels of Example 4 in study mice; assay type: in vivo; details: CD-1, whole blood, ip, mouse, 90 minutes after administration, n=3, mean [range], read-out: Blood concentration of Test Drug
Experimental: Blood samples were collected from a subset of study mice (n=3) at the end of the behavioural measurement (90 minutes post-dose of test drug), and assayed using a method based on protein precipitation with acetonitrile followed by HPLC-MS/MS analysis with an optimized analytical method. Since the stability of the analyte in blood and brain was unknown, Calibration standards (CS) and Quality control samples (QC) were prepared on the day of dosing and stored together with study samples. Study samples, CS, QC and blanks were spiked with rolipram as internal standard (IS). Study samples were analyzed in discrete batches together with CS, QC and blank samples.

Male CD-1 mice = assay: Biological Example 2: psychostimulant (amphetamine)-induced hyperactivity in mice; details: over 60 minutes, mean ± sem
[2] = molecular target: T1, human Kv3.2 channels (hKv3.2) (Homo sapiens, UniProt Q96PR1); assay: Biological Example 1: hKv3.2 whole-cell currents, IonWorks Quattro planar array electrophysiology; assay type: cell-based
T1 construct: expressed in transfected cells
T1 sequence (Q96PR1 1-638): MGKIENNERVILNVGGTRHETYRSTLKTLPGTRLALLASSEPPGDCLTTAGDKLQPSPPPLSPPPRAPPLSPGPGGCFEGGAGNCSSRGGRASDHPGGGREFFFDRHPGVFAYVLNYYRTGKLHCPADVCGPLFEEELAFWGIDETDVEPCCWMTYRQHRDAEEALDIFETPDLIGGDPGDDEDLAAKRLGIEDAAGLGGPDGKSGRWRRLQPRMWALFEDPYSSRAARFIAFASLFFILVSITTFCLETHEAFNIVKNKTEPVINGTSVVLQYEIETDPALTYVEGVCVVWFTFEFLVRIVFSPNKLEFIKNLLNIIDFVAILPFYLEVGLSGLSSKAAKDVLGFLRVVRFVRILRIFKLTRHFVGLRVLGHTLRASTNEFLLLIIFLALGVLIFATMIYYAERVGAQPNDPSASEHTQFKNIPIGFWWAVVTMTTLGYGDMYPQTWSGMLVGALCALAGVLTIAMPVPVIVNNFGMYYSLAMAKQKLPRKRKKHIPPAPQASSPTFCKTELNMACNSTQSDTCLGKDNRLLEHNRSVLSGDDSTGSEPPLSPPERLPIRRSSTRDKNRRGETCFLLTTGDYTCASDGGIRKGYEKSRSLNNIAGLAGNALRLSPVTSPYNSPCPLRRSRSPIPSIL
From the text: The ability of the compounds of the invention to modulate the voltage-gated potassium channel subtypes Kv3.2 or Kv3.1 may be determined using the following assay. Analogous methods may be used to investigate the ability of the compounds of the invention to modulate other channel subtypes, including Kv3.3 and Kv3.4.
To assess compound effects on human Kv3.2 channels (hKv3.2), a stable cell line expressing hKv3.2 was created by transfecting Chinese Hamster Ovary (CHO)-K1 cells with a pClH5-hKv3.2 vector. Cells were cultured in DMEM/F12 medium supplemented by 10% Foetal Bovine Serum, lx non-essential amino acids (Invitrogen) and 500 ug/ml of Hygromycin-B (Invitrogen). Cells were grown and maintained at 37° C. in a humidified environment containing 5% CO2 in air.
The day of the experiment, cells were removed from the incubator and the culture medium removed. Cells were washed with 5 ml of Dulbecco's PBS (DPBS) calcium and magnesium free and detached by the addition of 3 ml Versene (Invitrogen, Italy) followed by a brief incubation at 37° C. for 5 minutes. The flask was tapped to dislodge cells and 10 ml of DPBS containing calcium and magnesium was added to prepare a cell suspension. The cell suspension was then placed into a 15 ml centrifuge tube and centrifuged for 2 min at 1200 rpm. After centrifugation, the supernatant was removed and the cell pellet re-suspended in 4 ml of DPBS containing calcium and magnesium using a 5 ml pipette to break up the pellet. Cell suspension volume was then corrected to give a cell concentration for the assay of approximately 3 million cells per ml.
Experiments were conducted at room temperature using IonWorks Quattro™ planar array electrophysiology technology (Molecular Devices Corp.) with PatchPlate™ PPC. Stimulation protocols and data acquisition were carried out using a microcomputer (Dell Pentium 4). Planar electrode hole resistances (Rp) were determined by applying a 10 mV voltage step across each well. These measurements were performed before cell addition. […] Following this, amphotericin-B solution was added to the intracellular face of the electrode to achieve intracellular access. Cells were held at −70 mV. Leak subtraction was conducted in all experiments by applying 50 ms hyperpolarizing (10 mV) prepulses to evoke leak currents followed by a 20 ms period at the holding potential before test pulses. From the holding potential of −70 mV, a first test pulse to −15 mV was applied for 100 ms and following a further 100 ms at −70 mV, a second pulse to 40 mV was applied for 50 ms. Cells were then maintained for a further 100 ms at −100 mV and then a voltage ramp from −100 mV to 40 mV was applied over 200 ms. Test pulses protocol may be performed in the absence (pre-read) and presence (post-read) of the test compound. Pre- and post-reads may be separated by the compound addition followed by a 3 minute incubation.
The intracellular solution contained the following (in mM): K-gluconate 100, KCl 54, MgCl2 3.2, HEPES 5, adjusted to pH 7.3 with KOH. Amphotericin-B solution was prepared as […] stock solution in DMSO and diluted to a final working concentration of 0.1 mg/ml in intracellular solution.
Compounds of the invention (or reference compounds such as N-cyclohexyl-N-[(7,8-dimethyl-2-oxo-1,2-dihydro-3-quinolinyl)methyl]-N′-phenylurea were dissolved in dimethylsulfoxide (DMSO) at a stock concentration of 10 mM. These solutions were further diluted with DMSO using a Biomek FX
Each dilution (1 μL) was transferred to another compound plate and external solution containing 0.05% pluronic acid (66 μL) was added. 3.5 μL from each plate containing a compound of the invention was added and incubated with the cells during the lonWorks Quattro™ experiment. The final assay dilution was 200 and the final compound concentrations were in the range 50 μM to 50 nM.

[3] = tested on: "fast-firing" interneurons in the somatosensory cortex; assay: Recordings from identified fast-firing interneurons, trains of high frequency depolarising current pulses; assay type: cell-based, mouse; details: 1 microM, n=6; trains of depolarising pulses at 100, 200, 300 Hz; p<0.05 vs no drug; listed as Reference Example 9
From the text: FIG. 2. Recordings made from identified “fast-firing” interneurons in the somatosensory cortex of the mouse.
Kv3.1 and Kv3.2 channels must activate and deactivate very rapidly in order to allow neurons to fire actions potentials at high frequency (Rudy and McBain, 2001, Trends in Neurosciences 24, 517-526). Slowing of activation is likely to delay the onset of action potential repolarisation; slowing of deactivation could lead to hyperpolarising currents that reduce the excitability of the neuron and delay the time before the neuron can fire a further action potential. Together these slowing effects on channel activation and deactivation are likely to lead to a reduction rather than a facilitation of the neurons ability to fire at high frequencies. Thus compounds that have this slowing effect on the Kv3.1 and/or Kv3.2 channels may slow neuronal firing.
The neurons are induced to fire at high frequencies by trains of high frequency depolarising current pulses at 100, 200, and 300 Hz. The ability of the neuron to fire an action potential on each pulse is determined. […] In the absence of drug (closed circles, n=9), the neurons maintained a spike probability of 1 up to 300 Hz.

Cc1ccc(Oc2ncc(N3C(=O)NC(C)(C)C3=O)cn2)c2c1OCC21CC1 [Example 4, 5,5-dimethyl-3-[2-(7-methylspiro[2H-benzofuran-3,1′-cyclopropane]-4-yl)oxypyrimidin-5-yl]imidazolidine-2,4-dione]
concentration at 90 min ([1]; Example 4 3 mg/kg i.p.): 98 ng/mL
concentration at 90 min ([1]; Example 4 10 mg/kg i.p.): 244 ng/mL
concentration at 90 min ([1]; Example 4 30 mg/kg i.p.): 2140 ng/mL
Locomotor activity (beam crosses) (Male CD-1 mice; AMPH 2 mg/kg i.p. + Example 4 3 mg/kg i.p. 30 min before): 10263 ± 2443 beam crosses
Locomotor activity (beam crosses) (Male CD-1 mice; AMPH 2 mg/kg i.p. + Example 4 10 mg/kg i.p. 30 min before, p<0.05 vs amphetamine alone): 9015 ± 1413 beam crosses
Locomotor activity (beam crosses) (Male CD-1 mice; AMPH 2 mg/kg i.p. + Example 4 30 mg/kg i.p. 30 min before, p<0.001 vs amphetamine alone): 4555 ± 922 beam crosses

CC[C@H]1NC(=O)N(c2ccc(Oc3cccc4c3C3(CC3)CO4)nc2)C1=O [RE9, reference compound]
Tauact mean ([2]; hKv3.2, -15 mV voltage step, compound 0.2 μM (concentration giving ~0.3 nA current at end of pulse)): 50.1 ms
Tauact ([2]; hKv3.2, each tested at a concentration that increased the Kv3.2 current to a similar level (~0.3 nA)): 50.1 ± 7.5 ms
ability of the neurons to fire on each pulse (spike probability) [3]: reduces the ability of the neurons to fire; also recorded: unable to follow trains at the highest frequency
